For data set [1], the target named is T1, human adrenergic α2A receptor (Homo sapiens, UniProt P08913).
T1 construct: expressed in transfected cells; host or cells: CHO-K1 or HEK293 cells
T1 sequence (P08913 1-465): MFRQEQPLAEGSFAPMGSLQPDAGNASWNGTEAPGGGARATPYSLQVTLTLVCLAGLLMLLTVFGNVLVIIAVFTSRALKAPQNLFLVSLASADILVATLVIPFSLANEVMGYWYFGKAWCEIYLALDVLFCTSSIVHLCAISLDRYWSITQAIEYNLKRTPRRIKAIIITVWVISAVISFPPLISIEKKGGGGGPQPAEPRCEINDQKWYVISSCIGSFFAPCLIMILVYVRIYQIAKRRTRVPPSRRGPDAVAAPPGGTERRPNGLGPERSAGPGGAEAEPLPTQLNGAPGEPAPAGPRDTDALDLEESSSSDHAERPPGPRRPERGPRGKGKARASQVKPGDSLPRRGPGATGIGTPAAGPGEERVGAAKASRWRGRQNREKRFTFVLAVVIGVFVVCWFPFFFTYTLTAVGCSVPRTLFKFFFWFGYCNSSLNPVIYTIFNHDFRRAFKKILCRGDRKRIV
The experiment in a line: Agonistic/antagonistic activity in G protein dependent pathway (aequorin intracellular calcium luminescence), α2A. Format: cell-based. Conditions: for Maximal activity on each receptor (%): α2A: 10 μM adrenaline = 100%; for inhibition at 0.1 µM / inhibition at 1 µM: against 10 μM endogenous ligand, read-out: Inhibitory activity on each receptor (%): α2A. The procedure:
(§1) Plasmids encoding each receptor, aequorin and Gα16 were prepared, and the plasmids were transfected into CHO cells (Chinese Hamster Ovary cells) or HEK293 cells (Human Embryonic Kidney 293 cells) to prepare expressing cell lines.
(§2) The agonistic or antagonistic activity of the present compound in the G protein dependent pathway was evaluated on the basis of intracellular calcium levels as follows. CHO-K1 or HEK293 cell lines transfected with D2, D4, α1A, or α2A receptor genes were seeded in a 384-well plate, and incubated in a CO2 incubator at 37° C. for 24 hours, and then a solution of the present compound in DMSO was added into cells preloaded with coelenterazine to measure the change in luminescent signals with a FDSS (Hamamatsu Photonics K.K.). […] The agonistic activity of the present compound was calculated according to the measured luminescent signals, as the maximal activity (Emax) of the present compound. On the other hand, the antagonistic activity of the present compound was calculated according to the luminescent signals in wells with 10 μM of an endogenous ligand alone defined as 100%, as the inhibitory activity of the present compound to an endogenous ligand. EC50 value was calculated as the concentration of the present compound required to achieve a 50% response, and IC50 was calculated as the concentration of the present compound required to achieve a 50% inhibition of the Emax of an endogenous ligand.
(In general: Calcium assays in cells follow changes in intracellular calcium, usually with a dye or a luminescent sensor.)

Data set [2] has as its target T2, Human dopamine D4 receptor (Homo sapiens, UniProt P21917).
T2 sequence (P21917 1-419): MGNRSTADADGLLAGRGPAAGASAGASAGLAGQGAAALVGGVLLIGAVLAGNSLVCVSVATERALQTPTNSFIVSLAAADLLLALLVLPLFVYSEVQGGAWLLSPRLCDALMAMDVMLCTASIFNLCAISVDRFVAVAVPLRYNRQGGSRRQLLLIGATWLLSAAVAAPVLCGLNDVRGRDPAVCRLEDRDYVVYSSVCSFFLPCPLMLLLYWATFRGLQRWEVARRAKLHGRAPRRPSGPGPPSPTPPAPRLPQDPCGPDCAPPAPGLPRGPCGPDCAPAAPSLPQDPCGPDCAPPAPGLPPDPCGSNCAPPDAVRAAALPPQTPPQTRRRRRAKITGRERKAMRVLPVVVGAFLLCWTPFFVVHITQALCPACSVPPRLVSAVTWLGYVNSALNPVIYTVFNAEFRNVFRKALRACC
The experiment in a line: Agonistic/antagonistic activity in G protein dependent pathway (aequorin intracellular calcium luminescence), D4. More on the design: expressed in transfected cells; host or cells: CHO-K1 or HEK293 cells. The class given is cell-based. To be noted: for inhibition at 0.1 µM / inhibition at 1 µM: against 10 μM endogenous ligand, read-out: Inhibitory activity on each receptor (%): D4; for Emax at 0.1 µM / Emax at 1 µM: read-out: Maximal activity on each receptor (%): D4. The procedure: as §1, §2

For data set [3], the target named is T3, Human dopamine D2 receptor (Homo sapiens, UniProt P14416).
T3 construct: expressed in transfected cells; host or cells: CHO-K1 or HEK293 cells
The experiment in a line: Agonistic/antagonistic activity in G protein dependent pathway (aequorin intracellular calcium luminescence), D2. To be noted: for Maximal activity on each receptor (%): D2: 10 μM dopamine = 100%; for inhibition at 0.1 µM / inhibition at 1 µM: against 10 μM endogenous ligand, read-out: Inhibitory activity on each receptor (%): D2. Format: cell-based. As to the method: as §1, §2

Data set [4] in a line: Brain penetration study in rat. Format: in vivo. Conditions: brain and plasma, unbound brain-to-plasma drug concentration ratio. As to the method: In this study, the brain penetration of the present compound can be evaluated. Specifically, a 7-week-old SD-type or WKY-type rat received the subcutaneous administration of a solution of the present compound in saline or the oral administration of a suspension of the present compound in methylcellulose. Plasma and brain were collected from the treated rat 0.5 hour, 1 hour or 2 hours after the administration, and then the levels of the present compound in the plasma and the brain were measured by a LC-MS method.
The protein binding ratios of the present compound to the plasma and the brain were measured by an equilibrium dialysis method.
The levels of the present compound in the plasma and the brain as well as the plasma and brain protein binding ratios are applied to the following formula, and thus Kp,uu,brain (Unbound brain-to-plasma drug concentration ratio) can be calculated. Kp,uu,brain=(level of the present compound in the brain×(100−brain protein binding ratio (%))/100)/(level of the present compound in the plasma×(100−plasma protein binding ratio (%))/100)

In data set [5] the target is T2, Human dopamine D4 receptor. The experiment in a line: G protein independent pathway: β-arrestin recruit ability (PathHunter β-galactosidase). More on the design: expressed in transfected cells. The class given is cell-based. To be noted: β-arrestin recruitment, 90 minutes; 10 μM dopamine = 100%. The procedure:
The activation of the G protein independent pathway was evaluated on the basis of the recruit ability of β-arrestin as follows. Cell lines transfected with D4 receptor genes were seeded in a 384-well plate, and incubated in a CO2 incubator at 37° C. for 24 hours, a solution of the present compound in DMSO was added into the cells, and then the cells were left at 37° C. for 90 minutes. Buffer containing β-galactosidase reaction substance (PathHunter Cell Assay Buffer, DiscoverRx) was added thereto, and luminescent signals in the wells were measured with a FDSS (Hamamatsu Photonics K.K.). […] The maximal activity (Emax) of the present compound was calculated according to the measured luminescent signals. EC50 value was calculated as the concentration of the present compound required to achieve a 50 response.
A general note: Activated receptors often draw arrestin, which recruitment assays turn into a signal.

A short description of data set [6]: PK study in rat (bioavailability). Format: in vivo. To be noted: plasma, oral vs intravenous administration. As to the method:
In this study, the pharmacokinetics of the present compound can be evaluated. Specifically, a 7-week-old SD-type or WKY-type rat received the intravenous administration of a solution of the present compound in saline or the oral administration of a suspension of the present compound in carboxymethylcellulose or methylcellulose. Blood was collected from the rat at each time below.
Intravenous administration: 5 minutes, 15 minutes, 30 minutes, 1 hour, 2 hours, 4 hours, 6 hours, and 24 hours after administration
Oral administration: 15 minutes, 30 minutes, 1 hour, 2 hours, 4 hours, 6 hours, and 24 hours after administration
Plasma was collected from the blood, the levels of the present compound in the plasma were measured by a LC-MS method, and then the pharmacokinetic parameters were calculated on the basis of the level changes.

The bioavailability is dose-corrected exposure relative to a reference, in per cent.

T3 sequence (P14416 whole entry): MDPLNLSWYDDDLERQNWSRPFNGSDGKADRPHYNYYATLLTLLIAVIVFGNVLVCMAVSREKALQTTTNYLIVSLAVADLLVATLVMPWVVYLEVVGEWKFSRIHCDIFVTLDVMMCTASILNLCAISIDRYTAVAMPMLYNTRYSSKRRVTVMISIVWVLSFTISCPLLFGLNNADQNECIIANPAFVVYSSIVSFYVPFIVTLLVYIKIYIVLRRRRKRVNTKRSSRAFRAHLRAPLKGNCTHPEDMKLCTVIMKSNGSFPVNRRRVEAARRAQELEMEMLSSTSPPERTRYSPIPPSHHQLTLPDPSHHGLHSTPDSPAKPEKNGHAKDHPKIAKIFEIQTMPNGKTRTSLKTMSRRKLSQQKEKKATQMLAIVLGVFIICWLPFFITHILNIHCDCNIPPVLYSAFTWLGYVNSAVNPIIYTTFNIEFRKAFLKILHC

In the case of `Cc1ncc(CN2CCC(c3cncc(F)c3)CC2)cn1` [Example 33, 5-[4-(5-Fluoropyridin-3-yl)piperidin-1-ylmethyl]-2-methylpyrimidine], in data set [1] (0.1 μM), the “Maximal activity on each receptor (%): α2A” value (“Maximal activity … (%): α2A” for short) is −0.1% and the inhibition at 0.1 µM is 0.91%. Besides, in data set [1] (1 μM), the “Maximal activity … (%): α2A” value is listed as −0.12% and the inhibition at 1 µM was determined as 7.8%. Further, in data set [2], the inhibition at 0.1 µM was determined as 76%, the inhibition at 1 µM was determined as 98%, the Emax at 0.1 µM amounted to 28% and the Emax at 1 µM came out at 51%. In addition, in data set [3] (0.1 μM), the “Maximal activity on each receptor (%): D2” value (from here on “Maximal activity … (%): D2”) stood at 0.29% and the inhibition at 0.1 µM is -5.3%. For the same compound, in data set [3] (1 μM), the “Maximal activity … (%): D2” value is reported as 1.7% and the inhibition at 1 µM came out at 1.2%. Further, the Kp uu in data set [4] amounted to 0.44. Further, in data set [5], the “Maximal activity on D4 receptor (%)” value was determined as 21%. For the same compound, the bioavailability in data set [6] amounted to 60.1%.

Consider `Cc1ncc(CN2CCC(c3ccccn3)CC2)c(N)n1` [Example 5, 2-Methyl-5-[4-(pyridin-2-yl)piperidin-1-ylmethyl]pyrimidin-4-amine], for which, in data set [1] (0.1 μM), the “Maximal activity … (%): α2A” value is −0.17% and the inhibition at 0.1 µM is -7%. In data set [1] (1 μM), the “Maximal activity … (%): α2A” value is −0.04% and the inhibition at 1 µM was -1.7%. In data set [2], the inhibition at 0.1 µM is 78%, the inhibition at 1 µM amounted to 90%, the Emax at 0.1 µM turned out to be 59% and the Emax at 1 µM is 74%. In data set [3] (0.1 μM), the “Maximal activity … (%): D2” value is listed as 0.19% and the inhibition at 0.1 µM is -1.7%. Also, in data set [3] (1 μM), the “Maximal activity … (%): D2” value is reported as 1.1% and the inhibition at 1 µM was 9.9%. Besides, the Kp uu in data set [4] was 1.97. The “Maximal activity on D4 receptor (%)” value in data set [5] turned out to be 11%. For the same compound, in data set [6], the bioavailability was found to be 16.8%.

As to `Nc1ncc(CN2CCC(c3cccnc3)CC2)cn1` [Example 37], in data set [1] (0.1 μM), the “Maximal activity … (%): α2A” value is given as −0.17% and the inhibition at 0.1 µM is 7.9%. Also, in data set [1] (1 μM), the “Maximal activity … (%): α2A” value is −0.27% and the inhibition at 1 µM came out at 0.24%. Moreover, in data set [2], the inhibition at 0.1 µM is 64%, the inhibition at 1 µM worked out at 77%, the Emax at 0.1 µM was 18% and the Emax at 1 µM stood at 40%. In data set [3] (0.1 μM), the “Maximal activity … (%): D2” value worked out at 5.4% and the inhibition at 0.1 µM was determined as 14%. Also, in data set [3] (1 μM), the “Maximal activity … (%): D2” value is recorded as 18% and the inhibition at 1 µM came to 47%. The Kp uu in data set [4] came out at 5.51. Moreover, the “Maximal activity on D4 receptor (%)” value in data set [5] is on record as 9%. This compound registered a bioavailability in data set [6] of 81.7%.
